Our source for the IC50 values is patent US8003785B2 (Takeda Pharmaceutical Company Limited, priority 2008, dated 2011).

For the experiment, the target named is T1, PLK1 (Homo sapiens, UniProt P53350).
T1 construct: Full-length, active GST-PLK1 is purified from Sf9 insect cells; made in house; host or cells: Sf9 insect cells
The experiment is described as follows: Biochemical Characterization Assay: HTRF kinase assay, GST-PLK1 phosphorylation of GST-p53. The following applies: GST-PLK1, GST-p53 substrate. Summed up: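 Full-length active GST-PLK1 (Sf9, 3 ug/mL) phosphorylated full-length GST-p53 (E. coli) in Kinase Assay Buffer for 35 min at 37 °C. Stopped with EDTA; phospho-p53 detected by HTRF with anti-phospho-p53, Eu-anti-rabbit and APC-anti-GST antibodies.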

T1 sequence (P53350 whole entry): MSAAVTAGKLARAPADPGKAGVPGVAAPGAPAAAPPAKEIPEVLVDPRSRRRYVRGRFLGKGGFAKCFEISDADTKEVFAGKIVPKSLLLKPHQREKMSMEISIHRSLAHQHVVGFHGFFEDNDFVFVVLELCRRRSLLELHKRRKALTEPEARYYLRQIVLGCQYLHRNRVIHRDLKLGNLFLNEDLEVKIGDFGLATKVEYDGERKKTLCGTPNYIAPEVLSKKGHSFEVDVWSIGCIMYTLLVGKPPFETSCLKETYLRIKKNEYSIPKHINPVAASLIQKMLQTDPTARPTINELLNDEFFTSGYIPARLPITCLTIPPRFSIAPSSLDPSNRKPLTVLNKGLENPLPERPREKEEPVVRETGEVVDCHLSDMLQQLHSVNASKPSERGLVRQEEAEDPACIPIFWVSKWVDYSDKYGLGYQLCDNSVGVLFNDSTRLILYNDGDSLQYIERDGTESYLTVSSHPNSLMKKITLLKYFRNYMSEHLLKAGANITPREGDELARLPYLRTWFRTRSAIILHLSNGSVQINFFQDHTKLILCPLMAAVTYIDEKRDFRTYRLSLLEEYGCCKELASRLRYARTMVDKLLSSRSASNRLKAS

Turning to `COc1cc(C(=O)NC2CCN(C(C)=O)CC2)ccc1Nc1ncc2c(n1)N(C1CCCC1)CC(F)(F)C(=O)N2C` [Example I-102, N-(1-acetyl-piperidin-4-yl)-4-(9-cyclopentyl-7,7-difluoro-5-methyl-6-oxo-6,7,8,9-tetrahydro-5H-pyrimido[4,5-b][1,4]diazepin-2-ylamino)-3-methoxy-benzamide], the IC50 (ATP) was in the range of 0.001 to 0.05 µM. Same read-out and setting: the figure for `COc1cc(C(=O)N[C@H]2CCNC2)ccc1Nc1ncc2c(n1)N(C1CCCC1)CC(F)(F)C(=O)N2C` [Example I-83, S-4-(9-cyclopentyl-7,7-difluoro-5-methyl-6-oxo-6,7,8,9-tetrahydro-5H-pyrimido[4,5-b][1,4]diazepin-2-ylamino)-3-methoxy-N—(S)-pyrrolidin-3-yl-benzamide] is 0.001 to 0.05 µM. On to `CN1CCC(NC(=O)c2ccc(Nc3ncc4c(n3)N(C3CCCC3)CC(F)(F)C(=O)N4C)c(F)c2)CC1` [Example I-183, 4-(9-cyclopentyl-7,7-difluoro-5-methyl-6-oxo-6,7,8,9-tetrahydro-5H-pyrimido[4,5-b][1,4]diazepin-2-ylamino)-3-fluoro-N-(1-methyl-piperidin-4-yl)-benzamide], for which the IC50 lay within 0.001 to 0.05 µM. On to `CN(C)CCCNC(=O)c1ccc(Nc2ncc3c(n2)N(C2CCC2)CC(F)(F)C(=O)N3C)cc1` [Example I-19, 4-(9-cyclobutyl-7,7-difluoro-5-methyl-6-oxo-6,7,8,9-tetrahydro-5H-pyrimido[4,5-b][1,4]diazepin-2-ylamino)-N-(3-dimethylamino-propyl)-benzamide], for which the IC50 (ATP) fell in the range of 0.001 to 0.05 µM. `CCc1cc(C(N)=O)ccc1Nc1ncc2c(n1)N(C1CCCC1)CC(F)(F)C(=O)N2C` [Example I-203] yielded an IC50 of 0.001 to 0.05 µM. For the compound `COc1cc(C(=O)NC2CC3CCC(C2)N3C)ccc1Nc1ncc2c(n1)N(C1CCCC1)CC(F)(F)C(=O)N2C` (centres unmarked) [Example I-50, 4-(9-cyclopentyl-7,7-difluoro-5-methyl-6-oxo-6,7,8,9-tetrahydro-5H-pyrimido[4,5-b][1,4]diazepin-2-ylamino)-3-methoxy-N-(8-methyl-8-aza-bicyclo[3.2.1]oct-3-yl)-benzamide], the IC50 (ATP) fell in the range of 0.001 to 0.05 µM.

In the case of `CCN1C(=O)C(F)(F)CN(C2CCCC2)c2nc(Nc3ccc(C(=O)NC4CCN(C)CC4)cc3)ncc21` [Example I-141, 4-(9-cyclopentyl-5-ethyl-7,7-difluoro-6-oxo-6,7,8,9-tetrahydro-5H-pyrimido[4,5-b][1,4]diazepin-2-ylamino)-N-(1-methyl-piperidin-4-yl)-benzamide], the IC50 (ATP) was 0.051 to 0.5 µM. Compound `CN1C(=O)C(F)(F)CN(C2CCCC2)c2nc(Nc3ccc(C(=O)NC4CCOCC4)cc3C(F)(F)F)ncc21` [Example I-207, 4-(9-cyclopentyl-7,7-difluoro-5-methyl-6-oxo-6,7,8,9-tetrahydro-5H-pyrimido[4,5-b][1,4]diazepin-2-ylamino)-N-(tetrahydro-pyran-4-yl)-3-trifluoromethyl-benzamide] displayed an IC50 of 0.051 to 0.5 µM. Consider `CNC(=O)c1ccc(Nc2ncc3c(n2)N(C2CCCCC2)CC(F)(F)C(=O)N3C)c(OC)c1` [Example I-249, 4-(9-cyclohexyl-7,7-difluoro-5-methyl-6-oxo-6,7,8,9-tetrahydro-5H-pyrimido[4,5-b][1,4]diazepin-2-ylamino)-3-methoxy-N-methyl-benzamide], for which the IC50 lay within 0.001 to 0.05 µM. In the case of `COc1cc(C(=O)Nc2ccncc2)ccc1Nc1ncc2c(n1)N(C1CCCC1)CC(F)(F)C(=O)N2C` [Example I-129, 4-(9-cyclopentyl-7,7-difluoro-5-methyl-6-oxo-6,7,8,9-tetrahydro-5H-pyrimido[4,5-b][1,4]diazepin-2-ylamino)-3-methoxy-N-pyridin-4-yl-benzamide], the IC50 (ATP) lay within 0.001 to 0.05 µM. With `CN(C)CCNC(=O)c1ccc(Nc2ncc3c(n2)N(C2CCCC2)CC(F)(F)C(=O)N3C)c(C(F)(F)F)c1` [Example I-208, 4-(9-cyclopentyl-7,7-difluoro-5-methyl-6-oxo-6,7,8,9-tetrahydro-5H-pyrimido[4,5-b][1,4]diazepin-2-ylamino)-N-(2-dimethylamino-ethyl)-3-trifluoromethyl-benzamide], the half-inhibitory concentration (IC50) lay within 0.051 to 0.5 µM. On to `COc1cc(C(=O)NCCCn2ccnc2)ccc1Nc1ncc2c(n1)N(C1CCCC1)CC(F)(F)C(=O)N2C` [Example I-61, 4-(9-cyclopentyl-7,7-difluoro-5-methyl-6-oxo-6,7,8,9-tetrahydro-5H-pyrimido[4,5-b][1,4]diazepin-2-ylamino)-N-(3-imidazol-1-yl-propyl)-3-methoxy-benzamide], for which, where the note is “ATP”, the IC50 is 0.001 to 0.05 µM.

`CCOc1cc(C(=O)NCCCN(C)C)ccc1Nc1ncc2c(n1)N(C1CCCC1)CC(F)(F)C(=O)N2C` [Example I-219, 4-(9-cyclopentyl-7,7-difluoro-5-methyl-6-oxo-6,7,8,9-tetrahydro-5H-pyrimido[4,5-b][1,4]diazepin-2-ylamino)-N-(3-dimethylamino-propyl)-3-ethoxy-benzamide] returned an IC50 of 0.001 to 0.05 µM. Take `COc1cc(C(=O)NCCCNC(=O)OCC2c3ccccc3-c3ccccc32)ccc1Nc1ncc2c(n1)N(C1CCCC1)CC(F)(F)C(=O)N2C` [Example I-73, {3-[4-(9-cyclopentyl-7,7-difluoro-5-methyl-6-oxo-6,7,8,9-tetrahydro-5H-pyrimido[4,5-b][1,4]diazepin-2-ylamino)-3-methoxy-benzoylamino]-propyl}-carbamic acid 9H-fluoren-9-ylmethyl ester]: the IC50 (ATP) lay within 0.051 to 0.5 µM. For the setting “ATP”, `CCCN1C(=O)C(F)(F)CN(C2CCCC2)c2nc(Nc3ccc(C(N)=O)cc3)ncc21` [Example I-145, 4-(9-cyclopentyl-7,7-difluoro-6-oxo-5-propyl-6,7,8,9-tetrahydro-5H-pyrimido[4,5-b][1,4]diazepin-2-ylamino)-benzamide] displayed an IC50 of 0.5 to 5 µM.

In the case of `CCCN1C(=O)C(F)(F)CN(C2CCCC2)c2nc(Nc3ccc(C(=O)NC)cc3OC)ncc21` [Example I-164, 4-(9-cyclopentyl-7,7-difluoro-6-oxo-5-propyl-6,7,8,9-tetrahydro-5H-pyrimido[4,5-b][1,4]diazepin-2-ylamino)-3-methoxy-N-methyl-benzamide], the IC50 is 0.5 to 5 µM.

Turning to `COc1cc(C(=O)NCCc2ccc3c(c2)OCO3)ccc1Nc1ncc2c(n1)N(C1CCCC1)CC(F)(F)C(=O)N2C` [Example I-43, N-(2-benzo[1,3]dioxol-5-yl-ethyl)-4-(9-cyclopentyl-7,7-difluoro-5-methyl-6-oxo-6,7,8,9-tetrahydro-5H-pyrimido[4,5-b][1,4]diazepin-2-ylamino)-3-methoxy-benzamide], for the setting “ATP”, the IC50 fell in the range of 0.051 to 0.5 µM.

For the compound `CCN1C(=O)C(F)(F)CN(C2CCCC2)c2nc(Nc3ccc(C(=O)NCCCN(C)C)cc3OC)ncc21` [Example I-160, 4-(9-cyclopentyl-5-ethyl-7,7-difluoro-6-oxo-6,7,8,9-tetra-hydro-5H-pyrimido[4,5-b][1,4]diazepin-2-ylamino)-N-(3-dimethylamino-propyl)-3-methoxy-benzamide], the IC50 was in the range of 0.051 to 0.5 µM. `COc1cc(C(=O)NC2CCN(C)CC2)ccc1Nc1ncc2c(n1)N(C1CCCC1)CC(F)(F)C(=O)N2` [Example I-137, 4-(9-cyclopentyl-7,7-difluoro-6-oxo-6,7,8,9-tetrahydro-5H-pyrimido[4,5-b][1,4]diazepin-2-ylamino)-3-methoxy-N-(1-methyl-piperidin-4-yl)-benzamide] gave an IC50 (ATP) of 0.051 to 0.5 µM.

Take `COc1cc(C(=O)NCC(O)CN2CCNCC2)ccc1Nc1ncc2c(n1)N(C1CCCC1)CC(F)(F)C(=O)N2C` (centres unmarked) [Example I-121, 4-(9-cyclopentyl-7,7-difluoro-5-methyl-6-oxo-6,7,8,9-tetrahydro-5H-pyrimido[4,5-b][1,4]diazepin-2-ylamino)-N-(2-hydroxy-3-piperazin-1-yl-propyl)-3-methoxy-benzamide]: the IC50 (ATP) was 0.001 to 0.05 µM. As for `CCc1cc(C(=O)NCCCN(C)C)ccc1Nc1ncc2c(n1)N(C1CCCC1)CC(F)(F)C(=O)N2C` [Example I-199, 4-(9-cyclopentyl-7,7-difluoro-5-methyl-6-oxo-6,7,8,9-tetrahydro-5H-pyrimido[4,5-b][1,4]diazepin-2-ylamino)-N-(3-dimethylamino-propyl)-3-ethyl-benzamide], the IC50 was 0.001 to 0.05 µM. `COc1cc(C(=O)N[C@H]2CC[C@@H](O)CC2)ccc1Nc1ncc2c(n1)N(C1CCCC1)CC(F)(F)C(=O)N2C` [Example I-68, cis-4-(9-cyclopentyl-7,7-difluoro-5-methyl-6-oxo-6,7,8,9-tetrahydro-5H-pyrimido[4,5-b][1,4]diazepin-2-ylamino)-N-(4-hydroxy-cyclohexyl)-3-methoxy-benzamide] displayed an IC50 (ATP) of 0.001 to 0.05 µM. In the case of `CN1C(=O)C(F)(F)CN(C2CCCCC2)c2nc(Nc3ccc(C(N)=O)cc3)ncc21` [Example I-257, 4-(9-cyclohexyl-7,7-difluoro-5-methyl-6-oxo-6,7,8,9-tetrahydro-5H-pyrimido[4,5-b][1,4]diazepin-2-ylamino)-benzamide], the IC50 was 0.001 to 0.05 µM. Compound `CNC(=O)c1ccc(Nc2ncc3c(n2)N(C2CCCC2)CC(F)(F)C(=O)N3)cc1` [Example I-133, 4-(9-cyclopentyl-7,7-difluoro-6-oxo-6,7,8,9-tetrahydro-5H-pyrimido[4,5-b][1,4]diazepin-2-ylamino)-N-methyl-benzamide] returned an IC50 (ATP) of 0.5 to 5 µM. Same read-out and setting: the figure for `COc1cc(C(=O)NC2CC(C)(C)N(C)C(C)(C)C2)ccc1Nc1ncc2c(n1)N(C1CCCC1)CC(F)(F)C(=O)N2C` [Example I-85, 4-(9-cyclopentyl-7,7-difluoro-5-methyl-6-oxo-6,7,8,9-tetrahydro-5H-pyrimido[4,5-b][1,4]diazepin-2-ylamino)-3-methoxy-N-(1,2,2,6,6-pentamethyl-piperidin-4-yl)-benzamide] is 0.001 to 0.05 µM. Compound `COc1cc(C(=O)N[C@H]2CC[C@H](N3CCN(CC4CC4)CC3)CC2)ccc1Nc1ncc2c(n1)N(C(C)C)CC(F)(F)C(=O)N2C` [Example I-302, N-[trans-4-(4-cyclopropylmethyl-piperazin-1-yl)-cyclohexyl]-4-(7,7-difluoro-9-isopropyl-5-methyl-6-oxo-6,7,8,9-tetrahydro-5H-pyrimido[4,5-b][1,4]diazepin-2-ylamino)-3-methoxy-benzamide] gave an IC50 of 0.001 to 0.05 µM.
